Results taken from patent US20210023223A1, “HYDROCARBON / LIPID - CAROTENOID COMPLEXES” (IP SCIENCE LIMITED, priority 2018, published 2021).

Legend:
[1] = Size of beef fat globules, microscopy; assay type: physicochemical
Excerpt: For measurement of lipid droplets and fat globules and quantification of their size binocular microscope Olympus BX41 was used with Cell^B software for morphometric analysis. All parameters were collected from 10 randomly selected microscopic fields at ×1000). In case of beef fat, lycopene incorporation led to a smaller increase of its fat globules, only by 30%, FIG. 3.

[2] = Size of Cod Liver oil lipid structures, microscopy; assay type: physicochemical
Excerpt: For measurement of lipid droplets and fat globules and quantification of their size binocular microscope Olympus BX41 was used with Cell^B software for morphometric analysis. All parameters were collected from 10 randomly selected microscopic fields at ×1000).
The effect of adding lycopene into another polyunsaturated oil, in this case cod liver oil, was a dose-dependent increase in the size of its lipid structures. For Olive and Sunflower oils this increase in diameter caused by lycopene could reach 20 fold, for Canola and Cod Liver oil it was 50 or 100 fold.

[3] = Hydrophobicity as oxygen gas solubility (micellar red-ox catalymetry); assay type: physicochemical
Excerpt: It is known that gas molecules are more soluble in hydrophobic domains than in polar structures or liquids. For example, solubility of molecular oxygen could be 4 to 10 fold greater in intact lipid membrane than in a surrounding aqueous solution [1-5]. In other words one can use the measure of soluble gas in lipids, or other […], as a measure of its hydrophobicity. This approach seem logical, however to the best of our knowledge has never been published.
Here we describe a new method to measure hydrophobicity of lipids as a function of concentration of soluble molecular oxygen within their matrix.
There are a number of ways to measure molecular oxygen in solid, crystal and indeed lipid structures. Almost all of them are physical methods such as ESR [1] or polarography. However, we decided to use much simpler and faster micellar acceleration red-ox catalymetry. This test can measure O2 in a dozen parallel samples not only lipids in model systems but also in circulating lipoproteins from human blood.
The physical expansion of the size of the oil droplets observed in the above experiments was estimated by independent measurements on changes in their hydrophobicity. […] With this approach it was possible to detect these changes when ratio lycopene to fatty acids reached 1 to 10,000 and then it was a dose dependent effect. This rise reached its plateau level at the ratio 1:4,000.

[4] = Spreadability of oil drops on the surface of water; assay type: physicochemical
Description: 1. A petri dish of 13.5 cm diameter was filled to the brim with unheated water.
2. 0.3 ml of Olive or Sunflower oil was dropped onto the surface from a standardised height (30 cm) using a 1 ml pipette.
3. The resultant droplets were photographed and measured 30 sec after impact.
4. For increased reliability, the procedure was repeated 5 times.
5. Steps 1-4 were then repeated for Olive and Sunflower oils with or without carotenoids in different concentrations.

[5] = Melting time; assay type: physicochemical; conditions: lycopene 0.25 to 0.5 mg per 1 gram
Description: Approximately 20 mg of butter, or pork fat, or beef fat, or cocoa butter, or chocolate, with or without certain concentrations of carotenoids, were placed on the surface of the laboratory slides and incubated at 37° C. in a laboratory incubator (TLK39).
For example, in experiments with the chocolate spread, when the lycopene was 0.25 to 0.5 mg per 1 gram of this product its melting time reduced by 30-35%, FIG. 18.

[6] = Defrosting time of frozen oil; assay type: physicochemical
Description: To determined defrosting time, frozen oil aliquots of 200 μI were incubated at ambient temperature of 20±2 C° until they were completely melted. Period of time, which was required for the tested sample to be melted, was measured with a laboratory timer (QUANTUM).

[7] = test system: individuals with a moderate hyperlipidemia; assay: Clinical Trial DHA-Lycopene, 4 weeks; assay type: in vivo, human; conditions: medians, DHA 250 mg and/or lycopene 7 mg once a day
Description: To validate this, a clinical trial was undertaken. 32 individuals aged 40-65 years old with a moderate hyperlipidemia (serum triglycerides, TG, >150 mg/dl and LDL from 130 to 160 mg/dl). They were randomised and split in four groups of 8: • The first was supplemented with a 250 mg of conventional formulation of DHA without lycopene (CF-DHA), • the second with 7 mg of lycopene, • the third with 250 mg of DHA and 7 mg of lycopene co-ingested at the same time but as two separate products, and • the fourth group received 7 mg lycopene formulated with 250 mg of DHA (LF-DHA). All products were taken once a day with the main meal. The duration of the trial was for 4 weeks.

[8] = test system: moderately obese volunteers; assay: Inflammatory Oxidative Damage (IOD) of serum; assay type: in vivo, human
Description: (§1) Study Design. The total number of volunteers recruited to take part in the study was 18 (9 male and 9 female subjects) Caucasians 40-67 years old.
(§2) Products Formulated with Lycopene was developed and made by Lycotec Ltd. (Cambridge, United Kingdom). The daily dose was 1 capsule of 20 mg of lycopene, and it was taken with the main meal of the day. The period of administration was 1 month.
Serum samples were incubated overnight in 0.05 M PBS acetate buffer (pH 5.6) to imitate the type of oxidative damage, which occurs during the release of lysosomes following neutrophil degranulation. The following morning the reaction was stopped using trichloroacetic acid. The concentration of the end products such as malonic dialdehyde (MDA), and other possible thiobarbituric acid reactive substances (TBARS), was then measured by colorimetry using reagents and kits from Cayman Chemical (MC, USA).

[9] = test system: moderately obese volunteers; assay: LDL-Px, serum LDL peroxidase proteins; assay type: in vivo, human
Description: as §1, §2
LDL-Px and Lipoprotein O2. Activity of serum LDL peroxidase proteins, which include IgG with superoxide dismutase activity, was measured as described previously. Plasma oxygen, which carried by blood lipids/lipoproteins was measured by catalymetry.

[10] = Acid induced degradation at pH 2.5, gas chromatography; assay type: physicochemical; conditions: lycopene 1 mg or 3 mg per 1 gram of DHA; 37° C.
[11] = after 20 mg lycopene daily for one month

CC(C)=CCC/C(C)=C/C=C/C(C)=C/C=C/C(C)=C/C=C/C=C(C)/C=C/C=C(C)/C=C/C=C(\C)CCC=C(C)C [Lycopene]
Increase of beef fat globules [1]: 30%
Increase in lipid droplet diameter [2]: 100 fold
Hydrophobicity in terms of gas solubility ([3]; ratio of molecules of lycopene per molecules of fatty acids 1:3,000): 248-287 10^−6 M O2 per mg of sunflower oil
Hydrophobicity in terms of gas solubility ([3]; ratio of molecules of lycopene per molecules of fatty acids 1:4,000): 275-321 10^−6 M O2 per mg of sunflower oil
Hydrophobicity in terms of gas solubility ([3]; ratio of molecules of lycopene per molecules of fatty acids 1:5,000): 197-198 10^−6 M O2 per mg of sunflower oil
Hydrophobicity in terms of gas solubility ([3]; ratio of molecules of lycopene per molecules of fatty acids 1:10,000): 180-182 10^−6 M O2 per mg of sunflower oil
Hydrophobicity in terms of gas solubility ([3]; ratio of molecules of lycopene per molecules of fatty acids 1:20,000): 143-155 10^−6 M O2 per mg of sunflower oil
Diameter of spread lipid drops relative to intact oil ([4]; 1 molecule of lycopene within about 120,000 molecules of oil lipids): 6-8 fold
Increase of spreadability on the surface of the water ([4]; olive oil): 11 fold
Reduction of melting time of chocolate spread [5]: 30-35%
Reduction of thawing time of Canola/Rapeseed oil ([6]; 0.3 mg per 1 ml of the oil): over 2 fold
Reduction of thawing time of Olive oil ([6]; 0.3 mg per 1 ml of the oil): 10 fold
Thawing time of Canola/Rapeseed oil ([6]; 0.3 mg per 1 ml of the oil, control 85 seconds): 40 s
Thawing time of Cod Liver oil ([6]; 0.3 mg per 1 ml of the oil, control 120): 55 s
Thawing time of frozen Olive oil ([6]; 0.3 mg per 1 ml of the oil, controls 60 (lycopene) and 48 seconds (astaxanthin)): 6 s
Reduction of thawing time of Sunflower oil ([6]; 0.3 mg per 1 ml the oil): 17 fold
LDL ([7]; 0 w): 156.0 mg/dL
Triglycerides ([7]; 0 w): 203.5 mg/dL
LDL ([7]; 4 w): 155.5 mg/dL
Triglycerides ([7]; 4 w): 190.0 mg/dL
IOD [8, 11]: 60 ± 5.8 μM MDA
IOD ([8]; before, n = 18): 107 ± 11.6 μM MDA
LDL-Px [9, 11]: 286 ± 29^ ELISA × 10^3
LDL-Px ([9]; before, n = 18): 545 ± 49^ ELISA × 10^3
Degradation of DHA at pH2.5 [10]: completely prevented
